Tests used:
Assay type in all cases: cell-based
[1] = system: isolated rat soleus muscles; test: Recovery of nerve-stimulated force in isolated rat soleus muscles exposed to sub-maximal tubocurarine; conditions: 9-AC added after tubocurarine; nerve stimulation by suction electrode, 60 Hz
Description: (§1) Experiments were performed using rat soleus muscles from either young (4-wk-old) or adult Wistar rats (12-14-week-old). Animal handling, killing and isolation of muscle is described elsewhere All experiments were performed using normal Krebs-Ringer bicarbonate solution (NKR). In solutions with elevated Mg^2+, MgCl2 was added to NKR-solution causing minor increases in osmolarity and ionic strength. In solutions with elevated K^+, 4 mM NaCl was replaced by 4 mM KCl in the NKR.
In all contraction experiments, isometric force production was determined and force produced during contractions was quantified by measuring the integral of the force response (AUC). Stimulation and force recordings have been described elsewhere. […] In these latter experiments, extracellular recordings of action potentials (M-waves) could be measured without temporal overlap with stimulation artefacts.
(§2) The aim was to find compounds that by inhibition of CIC-1 channels can recover nerve-stimulated force under conditions of fatigue including conditions where fatigue is caused by compromised neuromuscular transmission. Neuromuscular transmission dysfunction can develop because of both pre- and/or post-synaptic complications in connection with a disorder or as part of neuromuscular blockade during/after surgery. In the initial series of drug testing, experiments were performed with isolated muscles in the presence of sub-maximal ACh receptor antagonist tubocurarine. Since the inclusion of tubocurarine caused a partial loss of neuromuscular transmission this experiment mimics the conditions in myasthenia gravis and neuromuscular blockade. To mimic conditions with pre-synaptic complication (Lambert Eaton syndrome, motor neuron disorder, polyneuropathy) the intact nerve-muscle preparations were incubated at elevated extracellular Mg^2+, which is known to suppress release of ACh from nerve terminals of motor neurons.
The experiments also illustrate that field stimulation of the entire nerve-muscle preparation selectively activates the motor nerve when short-duration pulses (0.02 vs 0.2 ms) were used. In FIG. 1A the preparation was stimulated either via field stimulation or via nerve-stimulation using a suction electrode. With the suction electrode only the nerve could be stimulated. When exposed to a submaximal concentration of the ACh receptor antagonist tubocurarine (0.2 μM) a clear drop in peak force and a further decline (or fade) in force during the stimulation developed. This drop in force clearly reflected compromised neuromuscular transmission, as the decline in peak force and fading were not seen with direct stimulation of the muscle. […] Thus, loss of M-wave and force with tubocurarine reflected partial blockade of neuromuscular function. Such fading of force and M-waves during stimulation represent clinical hallmarks of both myasthenia gravis and neuromuscular blockade in connection with surgery. In FIG. 1B, observations with normal (0.2 ms) and short-duration (0.02 ms) pulses have been compared. It can be seen that only with short-duration pulses did tubocurarine cause a decline in peak force and fading (FIG. 1B). This confirms that short-duration pulses in field stimulation could be used as specific nerve-stimulation. […] Elevated extracellular Mg^2+ could thus be used to partially block neuromuscular transmission and thus be used as a model of conditions with compromised pre-synaptic function (Lambert Eaton syndrome, amyotrophic lateral sclerosis, spinal muscular atrophy). […]

[2] = system: isolated rat soleus muscles; test: Recovery of nerve-stimulated force in isolated rat soleus muscles exposed to 3.5 mM Mg2+; conditions: 9-AC added at 3.5 mM Mg2+; nerve stimulation by suction electrode, 60 Hz
Description: as §1
as §2, with “Since the inclusion of tubocurarine caused a partial loss of neuromuscular transmission this experiment mimics the conditions in myasthenia gravis and neuromuscular blockade.” left out

isolated rat muscle = test: Measurement of force in an in vitro model: isolated rat soleus nerve-muscle preparation, 115 nM tubocurarine; conditions: 50 μM compound after 90 min in tubocurarine
Description: FIGS. 12A-12B. […] Force traces from a representative muscle stimulated to contract in 1) control condition before addition of neuromuscular blocking agent, 2) the force response to stimulation after 90 minutes incubation with Tubocurarine. […] The traces presented in FIG. 12A (1, 2, 3), correspond to the dotted lines in FIG. 12B, respectively.
Recovery of force is quantified as the percentage of the force prior to tubocurarine that is recovered by the compound.
The current invention relates to compounds that inhibit CIC-1 ion channels and increase muscle excitability and thereby improve muscle function in clinical conditions where muscle activation is failing. Such conditions result in loss of contractile function of skeletal muscle, weakness and excessive fatigue. […]
Experimentally, soleus muscles from 4-5 wk old rats were isolated with the motor nerve remaining attached. […] Stimulation of the motor nerve led to activation of the muscle fibres and ensuing force production that was recorded.
After mounting the nerve-muscle preparation in the experimental setup, the contractile function of the muscle was initially assessed under the control conditions (FIG. 2A). […] To quantify the ability of the compound to restore force the percentage of the initial force that was restored was determined after 40 mins of compound exposure (FIG. 2B) and the point increase is reported in Table 8.

Row | Structure (SMILES) | recovery of force and M-wave signal [1] | recovery of force and M-wave signal [2] | recovery of force (in words) (isolated rat muscle)
1 | O=C(O)c1c2ccccc2cc2ccccc12 [Compound 9-AC, 9-anthracenecarboxylic acid, reference compound] | marked recovery of both force and M-wave signal | marked recovery of both force and M-wave signal | 
2 | O=C(O)[C@H](CF)Oc1ccc(Br)cc1F [Compound A-19, (2R)-2-(4-bromo-2-fluorophenoxy)-3-fluoropropanoic acid] |  |  | subsequently recovered

Source: US11730714B2, “Compounds for the treatment of neuromuscular disorders” (NMD PHARMA A/S, priority 2017, dated 2023)
